Experimental data published in paper PMC10857906, “PROTAC-mediated NR4A1 degradation as a novel strategy for cancer immunotherapy” (The Journal of Experimental Medicine, 2024).

What was measured:
NR4A1 = biological target: T1, NR4A1 (Homo sapiens, UniProt P22736); test: NR4A1 degradation in A375 human melanoma cells (immunoblotting); type: cell-based; settings: 16 h treatment, read-out: 50% degradation concentration (DC50) of NR4A1
T1 construct: NR-V04 effectively promoted the degradation of NR4A1 in two human melanoma cell lines within 16 h; endogenous in cells; host or cells: CHL-1, A375, WM164, M229 human melanoma cells
T1 sequence (P22736 whole entry): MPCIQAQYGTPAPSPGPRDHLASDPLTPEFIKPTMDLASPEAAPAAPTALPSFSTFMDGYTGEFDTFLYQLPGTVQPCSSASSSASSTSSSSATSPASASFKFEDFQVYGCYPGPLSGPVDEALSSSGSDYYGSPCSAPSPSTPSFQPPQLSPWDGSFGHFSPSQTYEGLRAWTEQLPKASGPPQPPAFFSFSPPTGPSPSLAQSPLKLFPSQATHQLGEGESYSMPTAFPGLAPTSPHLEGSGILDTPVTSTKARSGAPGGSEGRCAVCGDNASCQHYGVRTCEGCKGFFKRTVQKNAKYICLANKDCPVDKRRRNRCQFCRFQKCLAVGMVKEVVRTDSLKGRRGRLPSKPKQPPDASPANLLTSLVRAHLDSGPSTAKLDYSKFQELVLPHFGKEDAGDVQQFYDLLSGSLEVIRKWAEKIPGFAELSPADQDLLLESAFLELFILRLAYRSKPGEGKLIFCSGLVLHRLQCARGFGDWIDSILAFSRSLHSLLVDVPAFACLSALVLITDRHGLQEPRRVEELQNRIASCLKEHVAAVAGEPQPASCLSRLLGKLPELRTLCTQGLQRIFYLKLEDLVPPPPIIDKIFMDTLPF
Method: Human melanoma cell lines: A375 and CHL-1 (gifts from Dr. D. Zhou, the University of Texas Health Science Center, San Antonio, TX, USA) were cultured in Dulbecco’s Modified Eagles’ Medium (DMEM, D5796; Sigma-Aldrich), WM164 and M229 (gifts from Dr. K.S.M. Smalley’s lab) were cultured in RPMI-1640 (R8758; Sigma-Aldrich). Mouse melanoma cell lines: B16F10 (CRL-6475, ATCC) was cultured in DMEM, SW1 and SM1 (gift from Dr. K.S.M. Smalley, Moffitt Cancer Center, Tampa, FL, USA) were cultured in RPMI. Human epithelial kidney cell lines: HEK293T (293T, CRL-3216; ATCC) and Vhl-KO-293T (gift from Dr. D. Zhou, the University of Texas Health Science Center, San Antonio, TX, USA) were cultured in DMEM. Mouse colon cancer cell lines: MC38 (ENH204-FP; Kerafast Inc.) was cultured in DMEM supplemented with 1 mM glutamine, […] non-essential amino acids (11140050; Thermo Fisher Scientific), 1 mM sodium pyruvate (11360070; Thermo Fisher Scientific), and 10 mM HEPES (15630080; Thermo Fisher Scientific). […]
Samples were lysed using radioimmunoprecipitation assay buffer (RIPA) lysis buffer (150 mM NaCl, 5 mM EDTA, 50 mM Tris pH 8.0, 0.5% sodium deoxycholate, 1% NP-40, 0.1% SDS) supplemented with 1 mM dithiothreitol and protease inhibitors. The lysates were separated by SDS-PAGE and analyzed using standard western blotting procedures ([Khan et al., 2019]). […]

NR4A3 = biological target: T2, NR4A3 (Homo sapiens, UniProt Q92570); test: NR4A3 protein level after treatment (immunoblotting); type: cell-based
T2 construct: endogenous in cells
T2 sequence (Q92570 whole entry): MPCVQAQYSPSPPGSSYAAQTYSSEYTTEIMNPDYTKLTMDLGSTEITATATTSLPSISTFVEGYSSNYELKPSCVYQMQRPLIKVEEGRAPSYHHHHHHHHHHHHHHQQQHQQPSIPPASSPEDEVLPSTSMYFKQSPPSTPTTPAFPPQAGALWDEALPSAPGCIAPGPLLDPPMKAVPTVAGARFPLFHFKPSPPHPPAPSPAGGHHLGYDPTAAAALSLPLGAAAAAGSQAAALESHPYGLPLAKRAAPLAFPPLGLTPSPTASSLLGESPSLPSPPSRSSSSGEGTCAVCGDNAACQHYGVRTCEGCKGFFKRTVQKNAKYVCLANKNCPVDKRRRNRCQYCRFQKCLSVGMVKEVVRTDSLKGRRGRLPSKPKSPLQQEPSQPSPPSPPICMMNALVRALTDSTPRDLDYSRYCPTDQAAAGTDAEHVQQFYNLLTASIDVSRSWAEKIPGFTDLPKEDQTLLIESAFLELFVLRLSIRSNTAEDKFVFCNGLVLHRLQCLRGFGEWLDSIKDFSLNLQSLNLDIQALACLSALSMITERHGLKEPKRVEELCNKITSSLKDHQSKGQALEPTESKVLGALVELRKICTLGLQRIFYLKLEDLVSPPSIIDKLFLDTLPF
Method: Samples were lysed using radioimmunoprecipitation assay buffer (RIPA) lysis buffer (150 mM NaCl, 5 mM EDTA, 50 mM Tris pH 8.0, 0.5% sodium deoxycholate, 1% NP-40, 0.1% SDS) supplemented with 1 mM dithiothreitol and protease inhibitors. The lysates were separated by SDS-PAGE and analyzed using standard western blotting procedures ([Khan et al., 2019]). Antibodies: human NR4A1 (ab153914, 1:1,000; Abcam), mouse NR4A1 (14-5965-82, 1:1,000; Invitrogen), NR4A2 (AV38753, 1:1,000; Sigma-Aldrich), NR4A3 (TA804893, 1: 1,000; Thermo Fisher Scientific), VHL (68547, 1:1,000; Cell Signaling), β-actin (13E5, 1:5,000; Cell Signaling), β-tubulin (9F3, 1: 5,000; Cell Signaling), and GAPDH (D16H11, 1: 5,000; Cell Signaling) were employed for protein detection.

NR4A1 and VHL = NR4A1 and VHL (Homo sapiens, UniProt P22736+P40337); test: Co-IP of Flag-NR4A1 and VHL in HEK293T cells; type: cell-based; settings: 500 nM, 16 h, 0.5 μM MG132
Chain of NR4A1 and VHL (P22736 whole entry): as the sequence (P22736 whole entry) above
Chain of NR4A1 and VHL (P40337 whole entry): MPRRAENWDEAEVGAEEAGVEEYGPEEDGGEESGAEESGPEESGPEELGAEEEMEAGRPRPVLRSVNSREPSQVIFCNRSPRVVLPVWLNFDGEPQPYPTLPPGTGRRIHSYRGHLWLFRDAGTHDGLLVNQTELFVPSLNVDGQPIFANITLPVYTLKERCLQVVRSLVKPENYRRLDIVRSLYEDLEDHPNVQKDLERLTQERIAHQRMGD
Chain of NR4A1 and VHL (Q15369 whole entry partner): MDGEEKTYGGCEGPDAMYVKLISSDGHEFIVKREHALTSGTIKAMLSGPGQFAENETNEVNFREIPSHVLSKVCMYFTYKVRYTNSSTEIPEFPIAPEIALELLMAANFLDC
Chain of NR4A1 and VHL (Q15370 whole entry partner): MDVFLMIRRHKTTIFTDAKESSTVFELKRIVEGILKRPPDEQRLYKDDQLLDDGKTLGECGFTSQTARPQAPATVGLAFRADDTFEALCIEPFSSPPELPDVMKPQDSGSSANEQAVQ
Method: HEK293T cells were transfected with 3 µg Flag-NR4A1 (HG17699-CF; SinoBiological) for 36 h in Opti-MEM (31985062; Thermo Fisher Scientific) medium with 10 µl GeneTran III reagent (GT2211; Biomiga).
HEK293T cells were transfected with Flag-NR4A1 for 36 h, following with treatment of either DMSO or 500 nM […] for 16 h, together with 500 nM MG132 included to prevent protein degradation. Proteins were extracted using RIPA lysis buffer without SDS (150 mM NaCl, 5 mM EDTA, 50 mM Tris, pH 8.0, 0.5% sodium deoxycholate, and 1% NP-40) supplemented with 1% protease inhibitor cocktail (C0001; TargetMol). IP was performed using Anti-FLAG M2 Magnetic Beads (M8823; Sigma-Aldrich) as per the manufacturer’s protocol. The immunoprecipitated samples were eluted with 2× SDS sample buffer and boiled for 5 min at 95°C. The samples were then subjected to denaturation, SDS-PAGE, and immunoblotting analysis.

Yummer1.7 melanoma = Yummer1.7 melanoma syngeneic tumor model; type: in vivo, mouse
From the text: (§1) 7–9-wk-old C57BL/6J, B6.129S2-Ighm^tm1Cgn/J (002288), B6.129S2-Nr4a1^tm1Jmi/J (NR4A1^−/−, 006187), and NOD-SCID interleukin-2 receptor gamma null (NSG) mice were purchased from Jackson Laboratories. For all studies involving NR-V04 and celastrol, the compounds were formulated in 50% phosal PG, 45% miglyol 810N, and 5% polysorbate 80 and administered via i.p. injection.
For syngeneic tumor models, 5 × 10^5 cells MC38, Yumm1.7, and Yummer1.7, 1 × 10^5 cells of B16F10 were resuspended in PBS and implanted into 7–9-wk-old mice subcutaneously. For the tumor inhibition experiment, mice were treated with 1.8 mg/kg NR-V04 or 0.75 mg/kg celastrol by i.p. injection twice weekly. For the immune profile experiment, once tumors reached 0.5 cm in diameter, mice were treated with 1.8 mg/kg NR-V04 by i.p. injection twice weekly. […] Blood samples were taken from the submandibular (facial) vein before each treatment and 42 days later for hematological analysis, and body weight was measured twice per week up to day 42. […]
We administered 100 μg of anti-mouse CD8α antibody (Clone: 53-6.7; Bio X Cell) or rat IgG2a isotype control to each mouse every 4 days via i.p. injection. […] Toward the end of the experiment, we collected blood samples from mice in both treatment and control groups and assessed the efficiency of CD8^+ T cell depletion using flow cytometry analysis.

B16F10 melanoma = B16F10 melanoma syngeneic tumor model; type: in vivo, mouse
From the text: as §1
For syngeneic tumor models, 5 × 10^5 cells MC38, Yumm1.7, and Yummer1.7, 1 × 10^5 cells of B16F10 were resuspended in PBS and implanted into 7–9-wk-old mice subcutaneously. For the tumor inhibition experiment, mice were treated with 1.8 mg/kg NR-V04 or 0.75 mg/kg celastrol by i.p. injection twice weekly. For the immune profile experiment, once tumors reached 0.5 cm in diameter, mice were treated with 1.8 mg/kg NR-V04 by i.p. injection twice weekly. For the toxicity experiment, male and female non-tumor-bearing mice were treated with 2 mg/kg NR-V04 for two doses in the first week and 5 mg/kg for another two doses in the second week. Blood samples were taken from the submandibular (facial) vein before each treatment and 42 days later for hematological analysis, and body weight was measured twice per week up to day 42. Mice were euthanized in accordance with the IACUC protocol once the largest tumors reached 2 cm in diameter, and tissues were collected for further analysis.

**Q.** `CC1=C(O)C(=O)C=C2C1=CC=C1[C@@]2(C)CC[C@@]2(C)[C@@H]3C[C@](C)(C(=O)NCCOCCOCCOCCOCC(=O)N[C@H](C(=O)N4C[C@H](O)C[C@H]4C(=O)N[C@@H](C)c4ccc(-c5scnc5C)cc4)C(C)(C)C)CC[C@]3(C)CC[C@]12C` [NR-V04] was tested. Which DC50 (NR4A1) did it give?
**A.** 519 nM

**Q.** And the “NR4A3 protein level (selectivity in the NR4A family)” value (NR4A3)?
**A.** sparing NR4A2 and NR4A3

**Q.** What about the Co-IP complex formation (NR4A1 and VHL) of the same molecule?
**A.** complex formation between NR4A1 and VHL

**Q.** And the “tumor response with CD8^+ T cell depletion” value (Yummer1.7 melanoma; Yummer1.7, anti-CD8 antibody 100 µg/mouse, NR-V04 from day 7)?
**A.** desensitized tumors to NR-V04 treatment

**Q.** What about the tumor growth (Yummer1.7 melanoma; Yummer1.7 in WT mice, 1.8 mg/kg i.p. twice a week from day 7) of the same molecule?
**A.** effectively inhibited tumor growth

**Q.** And the tumor growth (B16F10 melanoma; B16F10 in B6.129S2-Ighm^tm1Cgn/J mice that lack mature B cells)?
**A.** unable to inhibit tumor growth

**Q.** What about the tumor growth (B16F10 melanoma; B16F10 in NR4A1^−/− mice, 1.8 mg/kg i.p.) of the same molecule?
**A.** failed to inhibit B16F10

**Q.** And the tumor growth (B16F10 melanoma; B16F10 in NSG mice, 1.8 mg/kg i.p.)?
**A.** failed to inhibit tumor growth

**Q.** And the tumor growth (B16F10 melanoma; B16F10 in WT mice, 1.8 mg/kg NR-V04 or 0.75 mg/kg celastrol i.p. twice a week from day 7)?
**A.** effectively inhibited tumor growth
